According to PMC9143880, “Improving Antimicrobial Activity and Physico-Chemical Properties by Isosteric Replacement of 2-Aminothiazole with 2-Aminooxazole” (Pharmaceuticals, 2022):
Read-outs that look alike come from different tables or passages of the source.

Tests used:
[1] = RP-UHPLC lipophilicity parameter log k’w; assay type: physicochemical; details: for log k’w: RP-UHPLC, acetonitrile/water, log k extrapolated to 0% acetonitrile; for logkw: experimental lipophilicity parameter
Summary of the method: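 log k’w from isocratic RP-UHPLC with an acetonitrile/water mobile phase, using 40, 45 and 50% acetonitrile for subtype I and 20, 30 and 40% for subtype II. A single run was made at each mobile-phase composition.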

[2] = test system: M. smegmatis DSM 43465 (ATCC 607); experiment: Antimycobacterial MIC, microdilution broth / resazurin; assay type: cell-based; details: Mycolicibacterium smegmatis; resazurin after 48 h; read-out: MIC M. smegmatis
[3] = test system: M. kansasii DSM 44162 (ATCC 12478); experiment: as above; assay type: cell-based; details: Mycobacterium kansasii, read-out: MIC M. kansasii
[4] = test system: Staphylococcus aureus subsp. aureus CCM 4223 (ATCC 29213); experiment: Antibacterial microdilution broth (EUCAST); assay type: cell-based; details: 24h incubation; for MIC: Staphylococcus aureus, read-out: MIC SA
[5] = test system: Staphylococcus aureus subsp. aureus (MRSA) CCM 4750 (ATCC 43300); experiment: Antibacterial microdilution broth (EUCAST); assay type: cell-based; details: 24h incubation; for MIC: Staphylococcus aureus, read-out: MIC MRSA
[6] = test system: Staphylococcus epidermidis CCM 4418 (ATCC 12228); experiment: Antibacterial microdilution broth (EUCAST); assay type: cell-based; details: 24h incubation; for MIC: Staphylococcus epidermidis, read-out: MIC SE
[7] = test system: Enterococcus faecalis CCM 4224 (ATCC 29212); experiment: Antibacterial microdilution broth (EUCAST); assay type: cell-based; details: 24h incubation; for MIC: Enterococcus faecalis, read-out: MIC EF
[8] = test system: Escherichia coli CCM 3954 (ATCC 25922); experiment: Antibacterial microdilution broth (EUCAST); assay type: cell-based; details: 24h incubation; for MIC: Escherichia coli, read-out: MIC EC
[9] = test system: Acinetobacter baumannii DSM 30007 (ATCC 19606); experiment: Antibacterial microdilution broth (EUCAST); assay type: cell-based; details: 24h incubation; for MIC: Acinetobacter baumannii, read-out: MIC AB
[10] = test system: Pseudomonas aeruginosa CCM 3955 (ATCC 27853); experiment: Antibacterial microdilution broth (EUCAST); assay type: cell-based; details: 72h incubation; for MIC: Pseudomonas aeruginosa, read-out: MIC PA
[11] = test system: Mycobacterium tuberculosis H37Ra ITM-M006710 (ATCC 9431); parameters: method as in PMID 30108959; details: cited from earlier work
[12] = test system: Candida albicans CCM 8320 (ATCC 24433); experiment: Antifungal microdilution broth (EUCAST); details: for MIC CA: 24h incubation; for MIC: Candida albicans, 24 h, read-out: MIC CA
[13] = test system: Candida krusei CCM 8271 (ATCC 6258); experiment: Antifungal microdilution broth (EUCAST); details: for MIC CK: 24h incubation; for MIC: Pichia kudriavzevii, 24 h, read-out: MIC CK
[14] = test system: Candida parapsilosis CCM 8260 (ATCC 22019); experiment: Antifungal microdilution broth (EUCAST); details: for MIC CP: 24h incubation; for MIC: Lodderomyces parapsilosis, 24 h, read-out: MIC CP
[15] = test system: Candida tropicalis CCM 8264 (ATCC 750); experiment: Antifungal microdilution broth (EUCAST); details: for MIC CT: 24h incubation; for MIC: Candida tropicalis, 24 h, read-out: MIC CT
[16] = test system: Aspergillus fumigatus ATCC 204305; experiment: Antifungal microdilution broth (EUCAST); details: for MIC AF: 24h incubation; for MIC: Aspergillus fumigatus, ATCC204305, 24 h, read-out: MIC AF
[17] = test system: Aspergillus flavus CCM 8363; experiment: Antifungal microdilution broth (EUCAST); details: for MIC AFla: 24h incubation; for MIC: Aspergillus flavus, CCM8363, 24 h, read-out: MIC AFla
[18] = test system: Lichtheimia corymbifera CCM 8077; experiment: Antifungal microdilution broth (EUCAST); details: for MIC LC: 24h incubation; for MIC: Lichtheimia corymbifera, CCM8077, 24 h, read-out: MIC LC
[19] = test system: Trichophyton interdigitale CCM 8377 (ATCC 9533); experiment: Antifungal microdilution broth (EUCAST); details: for MIC TI: 72h incubation; for MIC: Trichophyton interdigitale, 72 h, read-out: MIC TI
G+ and G- bacteria = test system: G+ and G- bacteria; parameters: method as in PMID 24561667; details: whole cell, cited from earlier work
Escherichia coli FabH = test system: Escherichia coli FabH; parameters: method as in PMID 24561667; details: cited from earlier work
HepG2 cells = experiment: HepG2 cytotoxicity screening (CellTiter 96); assay type: cell-based, human; details: for IC50: Homo sapiens, HepG2, 24 h, 24 h incubation, CellTiter 96, * above highest tested concentration, ** limited by insolubility in medium
[20] = test system: Mycobacterium tuberculosis H37Ra ITM-M006710 (ATCC 9431); experiment: Antimycobacterial MIC, microdilution broth / Alamar Blue (resazurin); assay type: cell-based; details: for MIC: Mycobacterium tuberculosis
[21] = test system: M. aurum DSM 43999 (ATCC 23366); experiment: Antimycobacterial MIC, microdilution broth / resazurin; assay type: cell-based; details: Mycolicibacterium aurum; resazurin after 72 h; read-out: MIC M. aurum
[22] = test system: M. avium DSM 44156 (ATCC 25291); experiment: as above; assay type: cell-based, Mycobacterium avium; details: Mycobacterium avium; resazurin after 96 h; read-out: MIC M. avium
PC12 cells = test system: PC12 cells; parameters: method as in PMID 19125579; details: acting as a PARP inhibitor; cited from earlier work
[23] = test system: bacterial MetAP (S. aureus, E. coli) vs hMetAP; parameters: method as in PMID 15664828; details: tested against S. aureus; cited from earlier work
[24] = 120 h, Middlebrook 7H9, resazurin after 120 h, read-out: Mtb H37Ra MIC

O=C(Nc1nc(-c2ccccc2)cs1)c1cnccn1 [Compound 17a]
2.365: log k’w [1] | logkw [1]
> 50 µg/mL: MIC ([3]; resazurin after 96 h)
>50 [11] µg/mL: Mtb H37Ra MIC [11]
> 250 µg/mL: MIC [2]
insoluble: MIC SA [4] | MIC MRSA [5] | MIC SE [6] | MIC EF [7] | MIC EC [8] | MIC AB [9] | MIC PA [10] | MIC CA [12] | MIC CK [13] | MIC CP [14] | MIC CT [15] | MIC AF [16] | MIC AFla [17] | MIC LC [18] | MIC TI [19]

O=C(Nc1nc(-c2ccc(Br)cc2)cs1)c1cccc(Cl)c1 [C]
3.13 to 12.5 µg/mL: MIC (G+ and G- bacteria)
9.3 µM: IC50 (Escherichia coli FabH)
7.9 to 31.8 µM: MIC (G+ and G- bacteria; recalculated to µM)

O=C(Nc1nc(-c2ccccc2)cs1)c1ccncc1 [Compound 13a]
2.190: log k’w [1]
7.81 µg/mL: Mtb H37Ra MIC ([20]; Middlebrook 7H9, resazurin after 120 h) | MIC ([3]; 96 h)
>3.6: SI (HepG2 cells; SI = IC50 (µM) HepG2 / MICH37Ra (µM))
3.91 to 7.81 µg/mL: MIC [20, 24]
≥ 500 µg/mL: MIC [2] | MIC [21] | MIC [22]
> 125 µM: MIC [4] | MIC [5] | MIC [6] | MIC [7] | MIC [8] | MIC [9] | MIC [10] | MIC [12] | MIC [13] | MIC [14] | MIC [15] | MIC [16] | MIC [17] | MIC [18] | MIC [19]
> 100 µM: IC50 (HepG2 cells)
moderate cytoprotective effect: cytoprotective effect (PC12 cells)
2.19: logkw [1]
27.8 µM: MIC ([20]; recalculated from µg/mL, read-out: MICH37Ra)

O=C(Nc1nc(-c2ccccc2)cs1)c1cnc(Cl)cn1 [Compound 18a]
> 500 µg/mL: MIC [2]
> 100 µg/mL: MIC [22] | MIC ([3]; resazurin after 96 h)
insoluble: MIC SA [4] | MIC MRSA [5] | MIC SE [6] | MIC EF [7] | MIC EC [8] | MIC AB [9] | MIC PA [10] | MIC CA [12] | MIC CK [13] | MIC CP [14] | MIC CT [15] | MIC AF [16] | MIC AFla [17] | MIC LC [18] | MIC TI [19]
3.173: log k’w [1] | logkw [1]
>100 [11] µg/mL: Mtb H37Ra MIC [11]

O=C(Nc1nccs1)c1ccccn1 [Compound 1a]
100 fold: selectivity towards bacterial MetAP over human homologue [23]
7.81 µg/mL: MIC [21]
1.857: log k’w [1] | logkw [1]
> 500 µM: MIC [4] | MIC [5] | MIC [6] | MIC [7] | MIC [8] | MIC [9] | MIC [10] | MIC [12] | MIC [15] | MIC [17] | MIC [18]
500 µM: MIC [13] | MIC [14] | MIC [16] | MIC [19]
31.2 µg/mL: MIC [20, 24]
> 1000 µM: IC50 (HepG2 cells)
62.5 µg/mL: MIC [2]
